Tests used:
CD4+ T cells = assay: exogenous autologous normal donor restimulation assay, TNFα/IFNγ double positive CD4+ T cells by flow cytometry; format: cell-based, human; settings: donor independent, peptide pool 10 μg/mL, healthy donors; for Fold change (CD4+) vs. DMSO: maximum CD4+ T-cell response (TNFα and IFNγ); for Frequency (TNFα + IFNγ + CD4 T cells): maximum CD4+ T-cell response
Description: (§1) The immunogenicity of neoantigens was assessed using the exogenous autologous normal donor restimulation assay. […] The lyophilized peptides were solubilized in 100% DMSO.
(§2) CD1c+ Dendritic Cells (CD1c+DC) isolated from human healthy PBMCs were thawed using media (IMDM (Gibco) supplemented with glutamine, HEPES, 5% human serum (Sigma), and 1× Pen-Strep). DC cells were resuspended in media supplemented with IL-4 (Peprotech, 20 ng/mL) and GM-CSF (Gibco, 20 ng/mL), plated in 6 well microplates, and rested overnight at 37° C. and 5% CO2 incubator. The following day, DC cells were counted and plated in a 96 well round bottom microplate at a concentration of 30,000 viable cells per well. Lyophilized neoantigen peptide pools (15-mer peptides with 8-mer overlapping peptide sequences) were solubilized in 100% DMSO with a stock concentration of 20 mg/mL Neoantigen peptides pools were added to DCs for a final concentration of 10 μg/mL and rested for 2 hours at 37° C. and 5% CO2 incubator. CEF Peptide Pool “Plus” (Cellular Technologies, Ltd.) was utilized as a positive control (each viral peptide at a final concentration of 4 ug/ml) and DMSO at the same final concentration (0.05%) as the experimental peptides was utilized as a negative control. After 2 hours, DC cells were irradiated with 50 gray of ionizing radiation. Autologous CD3+ Pan-T cells isolated from human normal PBMCs were thawed using media. Following irradiation, autologous Pan-T cells were added to the irradiated DCs at 300,000 viable cells per well. Human IL-15 (Peprotech) was added to all wells at final concentration of 10 ng/ml. Plates were incubated at 37° C. and 5% CO2 incubator for a total of 12 days. Media was refreshed every 2-3 days with IL-15 (R&D System, 10 ng/mL final concentration) and IL-2 (R&D systems, 10 IU/mL final concentration).
(§3) On Day 11, cells were re-stimulated with identical experimental peptide pools or controls, at same concentration as peptide stimulation on Day 1. Protein Inhibitor Cocktail (eBioscience) was added to every well and plate was incubated overnight for 14-16 hours at 37° C. and 5% CO2 incubator. On Day 12, cells were stained for surface and intracellular flow cytometry analysis. The cells were washed with PBS and stained with Live/Dead Fixable Aqua Dead Cell stain (Thermo-Fisher). Following the live/dead stain, cells were blocked using Biotin-Fre Fc Receptor Blocker (Accurate Chemical & Scientific Corp). Extracellular cellular flow panel ([…] per well in 50 μL) consisted of CD3 PerCP-Cy5.5 (Biolegend), CD4 BV421 (Biolegend), and CD8 APC-Cy7 (Biolegend). After extracellular staining, cells were fixed and permeabilized using Foxp3/Transcription Factor Staining Buffer Set (eBioscience) and stained for intracellular proteins (1:50 dilution) using TNFα FITC (R&D Systems) and IFNγ BV785 (Biolegend). Cells were washed and resuspended in stain buffer, analyzed, and recorded in a BD Celesta flow cytometer.
(§4) Flow cytometry analysis was conducted on FlowJo v10.6 software. Cells were gated on live, singlet, CD3+, CD4+ and CD8+ T cells. The CD8+ and CD4+ T cells were analyzed for TNFα and IFNγ expression.
(§5) The immunogenicity of neoantigens was first investigated in 9-16 healthy donors.

CD8+ T cells = assay: exogenous autologous normal donor restimulation assay, TNFα/IFNγ double positive CD8+ T cells by flow cytometry; format: cell-based, human; settings: for Fold change (CD8+) vs. DMSO: maximum CD8+ T-cell response (TNFα and IFNγ); for Fold change (CD8+) vs. DMSO / Frequency (TNFα + IFNγ + CD8 T cells): donor independent, peptide pool 10 μg/mL, healthy donors; for Frequency (TNFα + IFNγ + CD8 T cells): maximum CD8+ T-cell response; for Immunogenic (yes/no): positive if CD8+ and/or CD4+ double positive TNFα/IFNγ frequency >=3-fold over DMSO and at least 0.01%
Description: as §1, §2, §3, §4, §5

Sequence | Fold change (CD4+) vs. DMSO (CD4+ T cells) | Frequency (TNFα + IFNγ + CD4 T cells) (CD4+ T cells) | Fold change (CD8+) vs. DMSO (CD8+ T cells) | Frequency (TNFα + IFNγ + CD8 T cells) (CD8+ T cells) | Immunogenic (yes/no) (CD8+ T cells)
GFILIGWGAGNLVLETSSGFIKHRS [AS69, neoantigen, alternative splicing of PTH2R] | 9.21 fold | 0.011% | 260.42 fold | 1% | Yes
GGLTLGARNTLTHGSPGPSQATVAVAPLSGRAAVSAAGGCVFLLLPACVPRRCHWIP [FUS16, neoantigen, gene fusion NDUFA11->FUT5] | 12.58 fold | 0.045% | 261.6 fold | 5.69% | yes
GTMEVKSKKKQTTVPLVQTR [AS67, neoantigen, alternative splicing of PARD6B] | 3.15 fold | 0.028% | 6.36 fold | 0.17% | Yes
HFECYHCEIRIPRKSNGIRGFLLTWRRDGNTSTSVQQTTSSL [FUS11, neoantigen, gene fusion AJUBA->HAUS4] | 39.13 fold | 0.14% | 3.3 fold | 0.071% | yes
HFSRLCGPVSHLSAHLAHLR [AS119, neoantigen, alternative splicing of SMAD6] | 4.17 fold | 0.027% | 1.32 fold | 0.037% | Yes
IGKGSFGKFLEDATHMV [AS36, neoantigen, alternative splicing of STK32C] | 3.36 fold | 0.04% | 7.44 fold | 0.45% | Yes
IPPHLQWESTRQTEWISVREFHLESSLYP [AS61, neoantigen, alternative splicing of IGF2BP3] | 4.26 fold | 0.038% | 4.86 fold | 0.13% | Yes
KHHLWALEAAWLSGRSPLSEPQLPLQPSGNSSSV [AS120, neoantigen, alternative splicing of STRA6] | 2.01 fold | 0.013% | 6.24 fold | 0.067% | Yes
KLCSRQRPDCQPVDSRHGPILSIQHLISALHTGDG [AS123, neoantigen, alternative splicing of VWA2] | 3.7 fold | 0.024% | 115.04 fold | 1.09% | yes
KNFITCFKGGHASAAEPRKGR [FUS22, neoantigen, gene fusion C8orf82->LRRC24] | 8.67 fold | 0.31% | 8.05 fold | 0.087% | Yes
KRPMASEVSFILIQWLLKP [AS146, neoantigen, alternative splicing of PIP5K1A] | 8.88 fold | 0.037% | 24.2 fold | 0.26% | Yes
LASGVPPPGLPWGPGPHLG [AS60, neoantigen, alternative splicing of HMCN2] | 4.3 fold | 0.019% | 265.02 fold | 1.9% | Yes

— US11945881B2, “Neoantigens expressed in ovarian cancer and their uses” (Janssen Biotech, Inc., priority 2020, dated 2024)
